The subject of series [1] is MCF-10A. Put plainly: Induction of DNA damage in human MCF-10A cells at 10 uM incubated for 48 hrs by Alkaline comet based EVOS digital inverted microscopic analysis. The class given is toxicity, cell-based.
The nature of series [2]: Drug localization in mitochondria of human MDA-MB-468 cells assessed as blue fluorescence at 5 uM incubated for 2 hrs by MitoTracker Red CMXRos based confocal microscopic analysis. The conditions noted are these: mda-mb-468, 2 h. The class given is ADME.
The nature of series [3]: Drug localization in mitochondria of human MDA-MB-468 cells assessed as fluorescence at 5 uM pretreated with paraquat for […] by MitoTracker Red CMXRos based confocal microscopic analysis. It is filed as ADME. The conditions noted are these: time 1.5 hrs.
A short description of series [4]: Drug localization in mitochondria of human MDA-MB-468 cells assessed as accumulation of compound in mitochondria at 5 uM incubated for 0.5 hrs and measured after […] by MitoTracker Red CMXRos based confocal microscopic analysis. The class given is ADME. The conditions noted are these: mda-mb-468, 2 h.
The nature of series [5]: Drug localization in nucleus of human MDA-MB-468 cells assessed as accumulation of compound in nucleus at 5 uM pretreated with paraquat for 10 hrs followed by compound addition and measured after […] by SYTO 9 or Hoechst 33342 staining based confocal microscopic analysis. It is filed as ADME, subcellular. The conditions noted are these: mda-mb-468, 10 h.
Series [6] in a line: Drug localization in nucleus of human MDA-MB-468 cells assessed as accumulation of compound in nucleus at 5 uM incubated for 0.5 hrs and measured after […] by SYTO 9 or Hoechst 33342 staining based confocal microscopic analysis. It is filed as ADME, subcellular. The conditions noted are these: mda-mb-468, 2 h.
Series [7] relates to MCF-10A. The series is described as follows: Induction of DNA damage in human MCF-10A cells at 5 uM incubated for 48 hrs by Alkaline comet based EVOS digital inverted microscopic analysis. The class given is toxicity, cell-based.
Series [8] is described as follows: Photophysical property of the compound assessed as relative quantum yield at 2 uM in PBS and DMSO relative to quinine sulfate. It is filed as physicochemical. The conditions noted are these: buffer.

As for `CC1(C)OB(c2ccc3cc(-n4cc(CCCCCCCCCOCc5cc(N(CCCl)CCCl)ccc5B5OC(C)(C)C(C)(C)O5)nn4)c(=O)oc3c2)OC1(C)C`, the Activity entry in the series on MCF-10A [1] is recorded as “Non-toxic”. For the same compound, the Drug uptake entry in series [2] was “Not_active”; in series [3] it was “Active”; in series [4], “Active”; in series [5] it was “Not_active”; in series [6] it was “Not_active”.

As to `CC1(C)OB(c2ccc3c(c2)Oc2cc(B4OC(C)(C)C(C)(C)O4)ccc2C32OC(=O)c3cc(-n4cc(CCCCCCCCCOCc5cc(N(CCCl)CCCl)ccc5B5OC(C)(C)C(C)(C)O5)nn4)ccc32)OC1(C)C`, the Drug uptake result in series [2] was “Not_active”; in series [3] it was “Active”; in series [4], “Active”; in series [5] it was “Not_active”; in series [6], “Not_active”.

As to `CC1(C)OB(c2ccc(N(CCCl)CCCl)cc2COCc2cn(-c3cc4ccc(O)cc4oc3=O)nn2)OC1(C)C`, the Activity result in the series on MCF-10A [7] was “Non-toxic”; in series [8] it was 0.17. Besides, the Drug uptake result in series [2] is recorded as “Active”; in series [6], “Not_active”.

Source of the values: ChEMBL document CHEMBL6087388, “Hydrogen peroxide responsive theranostics for cancer-selective activation of DNA alkylators and real-time fluorescence monitoring in living cells” (Eur J Med Chem, 2024).
